Source: ChEMBL document CHEMBL4725439, “Direct Comparison of (N)-Methanocarba and Ribose-Containing 2-Arylalkynyladenosine Derivatives as A Receptor Agonists” (ACS Med Chem Lett, 2020)
Values belong to the molecule of their own block, whether it stands above or below them. Activity calls are given as the source filed them. The rule behind the calls is not given here.

Key:
Adenosine receptor A2a [1] = target: T1, Adenosine receptor A2a (Homo sapiens, UniProt P29274); test: Displacement of [3H]2-[p-(2-carboxyethyl)phenyl-ethylamino]-5'-N-ethylcarboxamidoadenosine from human A2A receptor expressed in HEK293 cells at 10 uM by radio ligand binding assay relative to control; format: cell-based
[2] = target: T2, Adenosine receptor A1 (Homo sapiens) (UniProt P30542); test: Displacement of [3H]N6-R-phenylisopropyladenosine from human A1AR expressed in HEK293 cells at 10 uM by radio ligand binding assay relative to control; format: cell-based
T2 sequence (whole entry): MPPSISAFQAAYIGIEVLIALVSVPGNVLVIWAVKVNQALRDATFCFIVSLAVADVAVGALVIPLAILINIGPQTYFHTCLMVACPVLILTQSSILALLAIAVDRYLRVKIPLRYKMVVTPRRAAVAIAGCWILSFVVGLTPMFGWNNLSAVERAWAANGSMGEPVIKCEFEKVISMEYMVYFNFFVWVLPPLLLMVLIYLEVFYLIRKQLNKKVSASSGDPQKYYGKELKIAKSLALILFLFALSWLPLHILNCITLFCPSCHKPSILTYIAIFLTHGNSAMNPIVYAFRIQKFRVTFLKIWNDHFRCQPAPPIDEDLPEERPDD

Adenosine receptor A3 [3] = target: T3, Adenosine receptor A3 (Mus musculus, UniProt Q61618); test: Displacement of [125I]AB-MECA from mouse […] expressed in HEK293 cell membranes assessed as inhibitor constant by radio ligand binding assay
T3 sequence (Q61618 whole entry): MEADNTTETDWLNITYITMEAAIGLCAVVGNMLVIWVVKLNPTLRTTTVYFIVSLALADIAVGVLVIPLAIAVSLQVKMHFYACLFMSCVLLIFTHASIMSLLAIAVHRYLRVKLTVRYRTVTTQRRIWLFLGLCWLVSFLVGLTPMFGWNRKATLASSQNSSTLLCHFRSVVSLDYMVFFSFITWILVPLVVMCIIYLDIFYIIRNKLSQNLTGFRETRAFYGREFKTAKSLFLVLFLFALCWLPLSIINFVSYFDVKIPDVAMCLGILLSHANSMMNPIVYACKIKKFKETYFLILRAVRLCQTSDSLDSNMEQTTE

Adenosine receptor A3 [4] = target: T4, Adenosine receptor A3 (Homo sapiens, UniProt P0DMS8); test: Displacement of [125I]N6-(4-amino-3-iodobenzyl)adenosine-5'-N-methyluronamide from human […] expressed in CHO cell membranes assessed as inhibitor constant by radio ligand binding assay
T4 sequence (P0DMS8 whole entry): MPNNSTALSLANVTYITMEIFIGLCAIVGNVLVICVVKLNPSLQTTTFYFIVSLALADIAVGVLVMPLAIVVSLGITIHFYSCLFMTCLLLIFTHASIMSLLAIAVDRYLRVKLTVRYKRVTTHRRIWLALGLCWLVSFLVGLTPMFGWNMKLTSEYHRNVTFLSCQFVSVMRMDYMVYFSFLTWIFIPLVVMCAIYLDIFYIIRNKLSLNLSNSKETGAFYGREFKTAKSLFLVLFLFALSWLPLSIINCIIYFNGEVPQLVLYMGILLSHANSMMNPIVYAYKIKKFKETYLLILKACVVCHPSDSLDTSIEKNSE

[5] = target: Adenosine receptor A2a (Mus musculus) (UniProt Q60613); test: Displacement of [3H]CGS21680 from mouse A2A receptor expressed in HEK293 cells at 10 uM by radio ligand binding assay relative to control; format: cell-based
[6] = target: Beta-3 adrenergic receptor (Homo sapiens) (UniProt P13945); test: Displacement of [125I]-Pindolol from human beta3 adrenergic receptor expressed in expressed in HEK Flp-In cells measured after 90 mins by microbeta scintillation counting method; format: cell-based
[7] = target: T5, Adenosine receptor A1 (Mus musculus) (UniProt Q60612); test: Displacement of [125I]AB-MECA from recombinant mouse A1AR expressed in HEK293 cells at 10 uM by radio ligand binding assay relative to control; format: cell-based; conditions: filed as agonist
T5 sequence (whole entry): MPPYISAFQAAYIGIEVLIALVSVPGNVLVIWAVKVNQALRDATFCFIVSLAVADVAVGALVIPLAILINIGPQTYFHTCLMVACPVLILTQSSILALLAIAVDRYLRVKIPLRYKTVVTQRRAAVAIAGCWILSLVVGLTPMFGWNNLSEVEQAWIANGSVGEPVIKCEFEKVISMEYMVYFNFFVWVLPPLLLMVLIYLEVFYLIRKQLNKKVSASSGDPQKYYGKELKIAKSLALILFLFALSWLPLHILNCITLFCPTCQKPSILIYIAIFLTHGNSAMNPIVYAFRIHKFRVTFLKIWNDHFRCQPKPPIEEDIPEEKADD

Adenosine receptor A1 [8] = target: T6, Adenosine receptor A1 (Mus musculus, UniProt Q60612); test: Displacement of [125I]AB-MECA from recombinant mouse A1AR expressed in HEK293 cells assessed as inhibitory constant by radio ligand binding assay; format: cell-based
T6 sequence (Q60612 whole entry): T5 sequence (whole entry)

Adenosine receptor A1 [9] = target: T7, Adenosine receptor A1 (Homo sapiens, UniProt P30542); test: Displacement of [3H]N6-R-phenylisopropyladenosine from human A1AR receptor expressed in HEK293 cells assessed as inhibitory constant by radio ligand binding assay; format: cell-based
T7 sequence (P30542 whole entry): T2 sequence (whole entry)

[10] = target: 5-hydroxytryptamine receptor 2B (Homo sapiens, UniProt P41595); test: Displacement of [3H]-LSD from recombinant human 5HT2B receptor expressed in stable HEK cells after 90 mins by microbeta scintillation counting method; format: cell-based
[11] = target: Sodium-dependent dopamine transporter (Homo sapiens, UniProt Q01959); test: Displacement of [3H]-Win35428 from human recombinant DAT receptor expressed in stable HEK cells after 90 mins by microbeta scintillation counting method; format: cell-based
[12] = Oral bioavailability in Sprague-Dawley rat; format: ADME, organism-based; conditions: in vivo
Adenosine receptor A2a [13] = target: T1, Adenosine receptor A2a; test: Displacement of [3H]2-[p-(2-carboxyethyl)phenyl-ethylamino]-5'-N-ethylcarboxamidoadenosine from human A2A receptor expressed in HEK293 cells assessed as inhibitor constant by radio ligand binding assay; format: cell-based
HepG2 = test: Cytotoxicity against human HepG2 cells; format: cell-based
[14] = Stability in Sprague-Dawley rat liver microsomes; format: ADME, Microsome
[15] = Stability in Sprague-Dawley rat plasma; format: ADME, cell-free
[16] = target: T8, Adenosine receptor A2b (Homo sapiens) (UniProt P29275); test: Agonist activity at Gs-coupled human A2B […] receptor expressed in CHO at 10 uM by cAMP based assay; format: functional, cell-based
T8 sequence (whole entry): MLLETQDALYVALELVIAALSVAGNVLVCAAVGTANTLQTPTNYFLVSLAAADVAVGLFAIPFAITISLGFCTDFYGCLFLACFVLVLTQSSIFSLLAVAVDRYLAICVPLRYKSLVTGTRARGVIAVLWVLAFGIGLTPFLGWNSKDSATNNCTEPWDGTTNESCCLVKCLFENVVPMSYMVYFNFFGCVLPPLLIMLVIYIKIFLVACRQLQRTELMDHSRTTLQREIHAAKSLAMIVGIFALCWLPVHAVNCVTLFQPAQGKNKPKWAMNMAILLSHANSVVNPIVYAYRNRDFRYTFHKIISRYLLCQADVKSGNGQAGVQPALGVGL

Adenosine receptor A3 [17] = target: T4, Adenosine receptor A3; test: Binding affinity to human A3AR assessed as inhibitor constant

Beta-3 adrenergic receptor (Homo sapiens), sequence (P13945 whole entry, looked up): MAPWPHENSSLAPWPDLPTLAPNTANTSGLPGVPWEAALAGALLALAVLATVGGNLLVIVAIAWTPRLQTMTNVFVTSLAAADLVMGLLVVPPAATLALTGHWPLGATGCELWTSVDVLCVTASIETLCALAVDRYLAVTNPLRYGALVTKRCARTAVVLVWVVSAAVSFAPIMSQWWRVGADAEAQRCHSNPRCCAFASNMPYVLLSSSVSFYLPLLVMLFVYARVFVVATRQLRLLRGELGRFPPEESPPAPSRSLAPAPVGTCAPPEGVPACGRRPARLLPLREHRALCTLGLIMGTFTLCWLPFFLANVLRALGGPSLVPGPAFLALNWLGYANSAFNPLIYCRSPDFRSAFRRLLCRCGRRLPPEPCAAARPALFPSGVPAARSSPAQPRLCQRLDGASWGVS
Adenosine receptor A2a (Mus musculus), sequence (Q60613 whole entry): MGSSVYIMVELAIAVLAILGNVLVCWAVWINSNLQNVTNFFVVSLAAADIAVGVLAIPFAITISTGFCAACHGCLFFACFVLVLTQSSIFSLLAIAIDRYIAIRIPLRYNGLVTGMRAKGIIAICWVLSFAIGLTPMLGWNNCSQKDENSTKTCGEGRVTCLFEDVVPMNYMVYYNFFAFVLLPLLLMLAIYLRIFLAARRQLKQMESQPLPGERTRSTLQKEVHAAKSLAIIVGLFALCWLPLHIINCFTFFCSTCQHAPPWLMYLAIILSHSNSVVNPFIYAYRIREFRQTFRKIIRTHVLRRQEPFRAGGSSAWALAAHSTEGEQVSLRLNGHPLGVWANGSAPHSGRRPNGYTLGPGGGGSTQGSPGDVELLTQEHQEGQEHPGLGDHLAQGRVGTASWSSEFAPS
T1 sequence (P29274 whole entry): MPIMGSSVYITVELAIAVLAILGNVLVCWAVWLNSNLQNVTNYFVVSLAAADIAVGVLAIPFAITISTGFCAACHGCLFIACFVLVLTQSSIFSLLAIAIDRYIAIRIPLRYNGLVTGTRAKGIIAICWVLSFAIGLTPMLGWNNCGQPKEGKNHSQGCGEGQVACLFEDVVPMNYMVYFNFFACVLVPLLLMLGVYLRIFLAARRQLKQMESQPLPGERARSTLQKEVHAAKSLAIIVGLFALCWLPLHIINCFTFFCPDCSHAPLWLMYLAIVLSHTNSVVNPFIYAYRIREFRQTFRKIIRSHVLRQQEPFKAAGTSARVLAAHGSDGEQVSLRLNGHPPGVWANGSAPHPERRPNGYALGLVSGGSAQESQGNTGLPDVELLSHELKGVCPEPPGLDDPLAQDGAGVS
Sodium-dependent dopamine transporter, sequence (Q01959 whole entry): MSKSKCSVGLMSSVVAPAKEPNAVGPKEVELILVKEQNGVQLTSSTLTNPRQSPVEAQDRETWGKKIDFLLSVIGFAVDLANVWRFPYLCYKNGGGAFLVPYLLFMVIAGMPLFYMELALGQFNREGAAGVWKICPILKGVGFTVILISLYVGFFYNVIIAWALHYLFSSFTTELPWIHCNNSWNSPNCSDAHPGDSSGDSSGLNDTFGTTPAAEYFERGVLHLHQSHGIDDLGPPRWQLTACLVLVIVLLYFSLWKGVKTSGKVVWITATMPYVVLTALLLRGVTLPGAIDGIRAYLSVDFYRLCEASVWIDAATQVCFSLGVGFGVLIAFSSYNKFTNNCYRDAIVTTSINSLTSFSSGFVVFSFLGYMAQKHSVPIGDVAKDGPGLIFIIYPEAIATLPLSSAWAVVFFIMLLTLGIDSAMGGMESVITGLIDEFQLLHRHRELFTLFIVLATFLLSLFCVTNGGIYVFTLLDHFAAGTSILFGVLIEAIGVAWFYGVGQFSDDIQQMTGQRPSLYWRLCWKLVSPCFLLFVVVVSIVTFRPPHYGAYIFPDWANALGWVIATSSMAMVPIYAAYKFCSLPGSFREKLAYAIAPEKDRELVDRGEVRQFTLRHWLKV
5-hydroxytryptamine receptor 2B, sequence (P41595 whole entry): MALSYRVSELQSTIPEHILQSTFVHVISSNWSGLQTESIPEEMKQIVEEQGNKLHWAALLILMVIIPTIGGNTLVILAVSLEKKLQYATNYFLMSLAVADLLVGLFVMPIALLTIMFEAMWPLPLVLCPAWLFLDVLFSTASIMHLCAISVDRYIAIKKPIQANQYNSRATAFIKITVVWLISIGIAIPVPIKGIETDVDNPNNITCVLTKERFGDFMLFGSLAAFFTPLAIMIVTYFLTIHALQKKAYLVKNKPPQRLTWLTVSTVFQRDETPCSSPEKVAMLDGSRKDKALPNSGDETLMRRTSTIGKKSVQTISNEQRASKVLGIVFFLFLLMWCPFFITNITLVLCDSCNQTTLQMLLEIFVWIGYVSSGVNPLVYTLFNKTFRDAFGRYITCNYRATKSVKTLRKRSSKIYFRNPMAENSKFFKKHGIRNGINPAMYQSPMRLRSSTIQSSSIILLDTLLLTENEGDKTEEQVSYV

inhibition (Adenosine receptor A2a [1]): 15% | inhibition ([2]; filed as agonist): 47% | Ki (Adenosine receptor A3 [3]): 1200 nM | Ki (Adenosine receptor A3 [4]): 26.6 nM
SMILES: CNC(=O)[C@H]1O[C@@H](n2cnc3c(NC)cc(C#Cc4ccc(F)s4)nc32)[C@H](O)[C@@H]1O

inhibition (Adenosine receptor A2a [1]; filed as agonist): 56% | inhibition [5]: 6% | Activity [6]: Active | inhibition [2]: 20% | inhibition [7]: 51% | Ki (Adenosine receptor A3 [3]): 37 nM | Ki (Adenosine receptor A3 [4]): 0.896 nM
SMILES: CNC(=O)[C@@]12C[C@@H]1[C@@H](n1cnc3c(NC)cc(C#Cc4ccc(F)s4)nc31)[C@H](O)[C@@H]2O

Ki (Adenosine receptor A1 [8]): 315 nM | Ki (Adenosine receptor A1 [9]): 1160 nM | inhibition (Adenosine receptor A2a [1]; filed as agonist): 49%
SMILES: CCCNc1nc(C#Cc2ccc(Cl)s2)nc2c1ncn2[C@@H]1O[C@H](C(=O)NC)[C@@H](O)[C@H]1O

inhibition (Adenosine receptor A2a [1]): 8% | inhibition [5]: 12% | inhibition ([2]; filed as agonist): 46% | inhibition [7]: 53%
SMILES: CNc1nc(C#Cc2ccc(Cl)s2)nc2c1ncn2[C@@H]1O[C@H](C(=O)OC)[C@@H](O)[C@H]1O

Activity [6]: Active
SMILES: CNC(=O)[C@@]12C[C@@H]1[C@@H](n1cnc3c(NC)cc(C#Cc4ccc(Cl)s4)nc31)[C@H](O)[C@@H]2O

Ki [10]: 760 nM | Ki [11]: 3940 nM
SMILES: CCCNc1cc(C#Cc2ccc(Cl)s2)nc2c1ncn2[C@H]1[C@H](O)[C@H](O)[C@]2(C(=O)NC)C[C@H]12

inhibition (Adenosine receptor A2a [1]; filed as agonist): 61% | inhibition [5]: 4% | Activity [6]: Active | inhibition [2]: 31% | inhibition [7]: 53% | Ki (Adenosine receptor A3 [3]): 25 nM | Ki (Adenosine receptor A3 [4]): 2.78 nM
SMILES: CCNc1cc(C#Cc2ccc(F)s2)nc2c1ncn2[C@H]1[C@H](O)[C@H](O)[C@]2(C(=O)NC)C[C@H]12

inhibition (Adenosine receptor A2a [1]): 20% | inhibition [2]: 24%
SMILES: CNc1nc(C#Cc2ccc(Cl)s2)nc2c1ncn2[C@H]1[C@H](O)[C@H](O)[C@]2(C(=O)OC)C[C@H]12

Ki (Adenosine receptor A1 [9]): 3980 nM | bioavailability [12]: 14% | Ki (Adenosine receptor A2a [13]): 838 nM | Stabilty [14]: Stable | Stabilty [15]: Stable | Ki (Adenosine receptor A3 [3]): 10.6 nM | Ki (Adenosine receptor A3 [4]): 1.13 nM
SMILES: CCCNc1nc(C#Cc2ccc(F)s2)nc2c1ncn2[C@H]1[C@H](O)[C@H](O)[C@]2(C(=O)NC)C[C@H]12
Activity (HepG2): Non-Toxic

Ki (Adenosine receptor A1 [9]): 369 nM | Ki (Adenosine receptor A2a [13]): 2460 nM | Ki (Adenosine receptor A3 [3]): 435 nM | Ki (Adenosine receptor A3 [4]): 8.51 nM
SMILES: CCCNc1nc(C#Cc2ccc(F)s2)nc2c1ncn2[C@@H]1O[C@H](C(=O)NC)[C@@H](O)[C@H]1O

Ki (Adenosine receptor A1 [8]): 864 nM | Ki (Adenosine receptor A1 [9]): 1670 nM | inhibition (Adenosine receptor A2a [1]): 27% | Ki (Adenosine receptor A3 [3]): 625 nM | Ki (Adenosine receptor A3 [4]): 10.4 nM
SMILES: CCOC(=O)[C@@]12C[C@@H]1[C@@H](n1cnc3c(NC)nc(C#Cc4ccc(F)s4)nc31)[C@H](O)[C@@H]2O

inhibition (Adenosine receptor A2a [1]): 18% | inhibition [5]: 5% | inhibition [2]: 17% | inhibition [7]: 54%
SMILES: CCOC(=O)[C@@]12C[C@@H]1[C@@H](n1cnc3c(NC)cc(C#Cc4ccc(Cl)s4)nc31)[C@H](O)[C@@H]2O

Ki (Adenosine receptor A1 [9]): 432 nM | inhibition (Adenosine receptor A2a [1]; filed as agonist): 45% | Ki (Adenosine receptor A3 [3]): 1510 nM | Ki (Adenosine receptor A3 [4]): 2.3 nM
SMILES: CNC(=O)[C@H]1O[C@@H](n2cnc3c(NC)nc(C#Cc4ccc(F)s4)nc32)[C@H](O)[C@@H]1O

bioavailability [12]: 14% | Stabilty [14]: Stable | Stabilty [15]: Stable
SMILES: CCNc1nc(C#Cc2ccc(Cl)s2)nc2c1ncn2[C@H]1[C@H](O)[C@H](O)[C@]2(C(=O)NC)C[C@H]12
Activity (HepG2): Non-Toxic

Activity [16]: inactive | bioavailability [12]: 14% | Stabilty [14]: Stable | Stabilty [15]: Stable
SMILES: CNC(=O)[C@@]12C[C@@H]1[C@@H](n1cnc3c(NC)nc(C#Cc4ccc(Cl)s4)nc31)[C@H](O)[C@@H]2O
Activity (HepG2): Non-Toxic

Ki (Adenosine receptor A1 [8]): 3260 nM | bioavailability [12]: 14% | Ki (Adenosine receptor A2a [13]): 4620 nM | Stabilty [14]: Stable | inhibition [5]: 5% | inhibition [2]: 33% | Stabilty [15]: Stable | Ki (Adenosine receptor A3 [3]): 85 nM | Ki (Adenosine receptor A3 [4]): 0.28 nM
SMILES: CNC(=O)[C@@]12C[C@@H]1[C@@H](n1cnc3c(NC)nc(C#Cc4ccc(F)s4)nc31)[C@H](O)[C@@H]2O
Activity (HepG2): Non-Toxic

bioavailability [12]: 14% | Stabilty [14]: Stable | Activity [6]: Active | Stabilty [15]: Stable
SMILES: CCNc1cc(C#Cc2ccc(Cl)s2)nc2c1ncn2[C@H]1[C@H](O)[C@H](O)[C@]2(C(=O)NC)C[C@H]12
Activity (HepG2): Non-Toxic

Activity [6]: Active
SMILES: CCCNc1nc(C#Cc2ccc(Cl)s2)nc2c1ncn2[C@H]1[C@H](O)[C@H](O)[C@]2(C(=O)NC)C[C@H]12

Ki (Adenosine receptor A1 [8]): 4170 nM | inhibition (Adenosine receptor A2a [1]): 7% | inhibition ([2]; filed as agonist): 58%
SMILES: CNC(=O)[C@H]1O[C@@H](n2cnc3c(NC)nc(C#Cc4ccc(Cl)s4)nc32)[C@H](O)[C@@H]1O

Ki (Adenosine receptor A3 [17]): 0.75 nM
SMILES: CCNC(=O)[C@H]1O[C@@H](n2cnc3c(NC)nc(C#C[C@@H](O)c4ccccc4)nc32)[C@H](O)[C@@H]1O
